Assay results as given in paper PMC8983201 (Evidence-based Complementary and Alternative Medicine : eCAM, 2022).

Key:
Format in all cases: cell-based
[1] = test system: MaMel-80a (BRAF-V600E homozygous mutant melanoma); assay: RRA cytotoxicity, MaMel-80a; conditions: Homo sapiens, compounds
Experimental: (§1) 18 cancer cell lines and normal hepatocyte AML12 were used in the present study. Cancer cell lines such as drug-sensitive leukemia CCRF-CEM and multidrug-resistant P-glycoprotein-overexpressing subline CEM/ADR5000 cells, breast cancer MDA-MB-231-pcDNA cells and its resistant subline MDA-MB-231-BCRP clone 23 cells, colon cancer HCT116 p53^+/+ cells and its knockout clone HCT116 p53^−/−, glioblastoma U87MG cells, and its resistant subline U87MG.ΔEGFR [7, 23, 24]. The maintenance of HepG2 cells and AML12 hepatocytes was also published. The CC531 rat colon carcinoma cells, B16-F1, B16-F10, A2058, SK-Mel505, MaMel-80a, MV3, SkMel-28, and Mel-2A, were previously reported.
(§2) Different types of human cancer cell lines were used in this study. The resazurin reduction assay (RRA) as previously described with similar experimental conditions to those reported earlier was used to measure the cell cytotoxicity. Fluorescence was measured on an Infinite M2000 Pro™ plate reader (Tecan, Germany) using an excitation wavelength of 544 nm and an emission wavelength of 590 nm. The viability was determined based on a comparison with untreated cells. The values representing the sample's concentrations required to inhibit 50% of cell proliferation (IC50) were calculated from a calibration curve by linear regression using Microsoft Excel 2013 [33, 34].

[2] = test system: SKMel-28 (BRAF-V600E homozygous mutant); assay: RRA cytotoxicity, SKMel-28; conditions: Homo sapiens, SK-MEL-28; SKMel-28, compounds
Experimental: as §1, §2

[3] = test system: A2058 (BRAF-V600E heterozygous mutant); assay: RRA cytotoxicity, A2058; conditions: Homo sapiens; A2058, compounds
Experimental: as §1, §2

[4] = test system: Mel-2a (BRAF-V600E heterozygous mutant); assay: RRA cytotoxicity, Mel-2a; conditions: Homo sapiens, compounds
Experimental: as §1, §2

[5] = test system: MV3 (BRAF wild type); assay: RRA cytotoxicity, MV3; conditions: Homo sapiens; MV3, compounds
Experimental: as §1, §2

[6] = test system: SKMel-505 BRAF wild-type melanoma cells; assay: RRA cytotoxicity, SKMel-505; conditions: Homo sapiens; SKMel-505, compounds
Experimental: as §1, §2

[7] = test system: CC531 rat colon carcinoma cells; assay: RRA cytotoxicity, CC531; conditions: Colon carcinoma cell, CC531, compounds
Experimental: as §1, §2

[8] = test system: B16-F1 murine melanoma; assay: RRA cytotoxicity, B16-F1; conditions: Mus musculus; B16-F1, compounds
Experimental: as §1, §2

[9] = test system: B16-F10 murine melanoma; assay: RRA cytotoxicity, B16-F10; conditions: Mus musculus; B16-F10, compounds
Experimental: as §1, §2

[10] = test system: tested cancer cell lines; assay: RRA cytotoxicity, summary over the panel of tested cancer cell lines; conditions: all cell lines tested (Table 3 panel)
Experimental: as §1, §2

[11] = test system: CCRF-CEM leukemia cells; assay: Resazurin reduction assay (RRA) cytotoxicity, CCRF-CEM; conditions: Homo sapiens, doxorubicin
Experimental: as §1, §2

[12] = test system: breast cancer MDA-MB-231-pcDNA cells; assay: RRA cytotoxicity, MDA-MB-231-pcDNA; conditions: Homo sapiens, doxorubicin
Experimental: as §1, §2

[13] = test system: MDA-MB-231-BCRP clone 23 cells; assay: RRA cytotoxicity, MDA-MB-231-BCRP; conditions: Homo sapiens, doxorubicin
Experimental: as §1, §2

[14] = test system: HCT116 p53−/− cells; assay: RRA cytotoxicity, HCT116 (p53−/−); conditions: Homo sapiens, HCT-116, doxorubicin
Experimental: as §1, §2

[15] = test system: glioblastoma U87MG cells; assay: RRA cytotoxicity, U87MG; conditions: Homo sapiens, U-87 MG, doxorubicin
Experimental: as §1, §2

[16] = test system: U87MG.ΔEGFR cells; assay: RRA cytotoxicity, U87MG.ΔEGFR; conditions: Homo sapiens, doxorubicin
Experimental: as §1, §2

[17] = test system: HepG2 hepatocarcinoma cells; assay: RRA cytotoxicity, HepG2; conditions: Homo sapiens; HepG2, doxorubicin column of Table 2
Experimental: The resazurin reduction assay (RRA) as previously described [24, 32] with similar experimental conditions to those reported earlier [26–30] was used to measure the cell cytotoxicity. Fluorescence was measured on an Infinite M2000 Pro™ plate reader (Tecan, Germany) using an excitation wavelength of 544 nm and an emission wavelength of 590 nm. The viability was determined based on a comparison with untreated cells.

[18] = test system: normal AML12 hepatocytes; assay: RRA cytotoxicity, normal AML12 hepatocytes; conditions: Mus musculus; AML12, doxorubicin column of Table 2
Experimental: as §1, §2

Structure (SMILES)	IC50 [1] [µM]	IC50 [2] [µM]	IC50 [3] [µM]	IC50 [4] [µM]	IC50 [5] [µM]	IC50 [6] [µM]	IC50 [7] [µM]	IC50 [8] [µM]	IC50 [9] [µM]	IC50 [10] [µM]	IC50 [11] [µM]	IC50 [12] [µM]	IC50 [13] [µM]	IC50 [14] [µM]	IC50 [15] [µM]	IC50 [16] [µM]	IC50 [17] [µM]	IC50 [18] [µM]
C[C@@H]1CC[C@@]2(OC1)O[C@H]1C[C@H]3[C@@H]4CC=C5C[C@@H](O)CC[C@]5(C)[C@H]4CC[C@]3(C)[C@H]1[C@@H]2C [Compound 5, diosgenin]	> 100	> 100	27.1 ± 1.18	> 100	> 100	> 100	> 100	> 100	> 100									
C[C@@H]1CC[C@@]2(OC1)O[C@H]1C[C@H]3[C@@H]4CC=C5C[C@@H](O[C@@H]6O[C@H](CO)[C@@H](O[C@@H]7O[C@H](CO)[C@@H](O)[C@H](O)[C@H]7O)[C@H](O)[C@H]6O[C@@H]6O[C@@H](C)[C@H](O)[C@@H](O)[C@H]6O)CC[C@]5(C)[C@H]4CC[C@]3(C)[C@H]1[C@@H]2C [Compound 7, deltonin]										> 100								
CC(CCC1(O)OC2CC3C4CC=C5CC(OC6OC(CO)C(O)C(OC7OC(CO)C(O)C(O)C7O)C6OC6OC(C)C(O)C(O)C6O)CCC5(C)C4CCC3(C)C2C1C)COC1OC(CO)C(O)C(O)C1O [Compound 3, (25R)-26-O-(β-D-galactopyranosyl)-furost-5-ene-3β, 22α, 26-trihydroxy-3-O-β-D-glucopyranosyl-(1 ⟶ 2)-[α-L-rhamnopyranosyl-(1 ⟶ 3)]-β-D-glucopyranoside]										> 100								
C[C@@H]1CC[C@@]2(OC1)O[C@H]1C[C@H]3[C@@H]4CC=C5C[C@@H](O[C@@H]6O[C@H](CO)[C@@H](O)[C@H](O)[C@H]6O)CC[C@]5(C)[C@H]4CC[C@]3(C)[C@H]1[C@@H]2C [Compound 6, diosgenin-3-O-β-D-glucopyranoside]	> 100	> 100	38.9 ± 2.78	> 100	> 100	> 100	> 100	79.2 ± 5.39	> 100									
COc1cccc2c1C(=O)c1c(O)c3c(c(O)c1C2=O)C[C@@](O)(C(=O)CO)C[C@@H]3O[C@H]1C[C@H](N)[C@H](O)[C@H](C)O1 [Doxorubicin, reference compound]	8.66 ± 0.56	2.14 ± 0.12	0.29 ± 0.04	6.63 ± 0.41	7.09 ± 0.59	9.39 ± 1.01	0.44 ± 0.23	0.22 ± 0.01	0.24 ± 0.03		0.02	0.13 ± 0.01	0.79 ± 0.08	1.78 ± 0.08	0.26 ± 0.03	0.98 ± 0.07	4.56 ± 0.48	52.9 ± 4.09
CC(CCC1(O)OC2CC3C4CC=C5CC(OC6OC(CO)C(O)C(O)C6O)CCC5(C)C4CCC3(C)C2C1C)COC1OC(CO)C(O)C(O)C1O [Compound 8, 26-O-β-D-glucopyranosyl-(22R,25R)-3β, 22, 26-trihydroxyfurost-5-ene-3-O-β-D-glucopyranoside]										> 100								
